pIC50: −log10 of the molar value.
What was measured:
hERG = hERG (Homo sapiens, UniProt Q12809); test: hERG assay (in vitro); format: cell-based; settings: read-out: IC50 on the potassium current
[1] = system: human tumor xenograft models; test: human tumor xenograft models; settings: mice, broad spectrum of models
CYP2D6 = CYP2D6 (Homo sapiens, UniProt P10635); test: direct CYP inhibition; format: in vitro ADME
CYP2E1 = CYP2E1 (Homo sapiens, UniProt P05181); test: direct CYP inhibition; format: in vitro ADME
[2] = pharmacokinetics after single dose of sitravatinib free base capsules; format: in vivo
Caco-2 cell lines = test: bidirectional permeability study with Caco-2 cell lines; format: in vitro ADME; settings: Caco-2 bidirectional
target RTKs [3] = test: oncogenic functions: MET-dependent cell viability and migration, endothelial tube formation and angiogenesis; settings: endothelial tube formation, angiogenesis
target RTKs [4] = test: cell-based assays of phosphorylation and kinase dependent function
CYP2A6 = CYP2A6 (Homo sapiens, UniProt P11509); test: direct CYP inhibition; format: in vitro ADME
CYP2C9 = CYP2C9 (Homo sapiens, UniProt P11712); test: direct CYP inhibition; format: in vitro ADME
PD-L1 on tumor cells = test: PD-L1 expression on tumor cells in vitro and in vivo; format: cell-based
From the text: (§1) Receptor tyrosine kinases (RTKs) are key regulators of signaling pathways leading to cell growth, survival, and migration. These kinases are dysregulated in many cancers through overexpression, genetic alteration or co-expression with high affinity ligands. Multiple sitravatinib RTK targets are genetically altered in a variety of cancers and act as oncogenic drivers, promoting cancer development and progression.

[5] = system: RET, CBL, CHR4q12, DDR and Trk; settings: cited from earlier work
[6] = target: T1, Breast Cancer Resistance Protein (BCRP) (Homo sapiens, UniProt Q9UNQ0); test: BCRP substrate assessment in Caco-2 bidirectional permeability study; format: in vitro ADME
T1 construct: In a bidirectional permeability study with Caco-2 cell lines; endogenous in cells; host or cells: Caco-2

CYP2B6 = CYP2B6 (Homo sapiens, UniProt P20813); test: direct CYP inhibition; format: in vitro ADME
CYP2C8 = CYP2C8 (Homo sapiens, UniProt P10632); test: direct CYP inhibition; format: in vitro ADME
P-gp = target: T2, P-gp (Homo sapiens, UniProt P08183); format: in vitro ADME
T2 construct: In a bidirectional permeability study with Caco-2 cell lines; endogenous in cells; host or cells: Caco-2

[7] = neurological functional observation battery and respiratory evaluations; format: in vivo; settings: rats, doses up to 25 mg/kg
CYP enzymes = test: time- or metabolism-dependent CYP inhibition; format: in vitro ADME
[8] = system: MET, Axl, MERTK, VEGFR family, PDGFR family, KIT, FLT3, Trk family, RET, DDR2, and selected Eph family members
CYP2C19 = CYP2C19 (Homo sapiens, UniProt P33261); test: direct CYP inhibition; format: in vitro ADME
CYP1A2 = CYP1A2 (Homo sapiens, UniProt P05177); test: direct CYP inhibition; format: in vitro ADME
BCRP = target: T3, BCRP (Homo sapiens, UniProt Q9UNQ0); format: in vitro ADME
T3 construct: In a bidirectional permeability study with Caco-2 cell lines; endogenous in cells; host or cells: Caco-2

P-glycoprotein (P-gp) = target: T4, P-glycoprotein (P-gp) (Homo sapiens, UniProt P08183); test: P-gp substrate assessment in Caco-2 bidirectional permeability study; format: in vitro ADME
T4 construct: In a bidirectional permeability study with Caco-2 cell lines; endogenous in cells; host or cells: Caco-2

[9] = system: systemic/spleen T lymphocytes and MDSCs; test: pilot studies in syngeneic mouse tumor models (immune cells); format: in vivo
From the text: as §1

cytochrome P-450 = format: in vitro ADME; settings: human
in vivo = test: in vivo; design: species or system dogs; settings: dog
human plasma proteins = format: in vitro ADME

Sequence of CYP2B6 (P20813 whole entry): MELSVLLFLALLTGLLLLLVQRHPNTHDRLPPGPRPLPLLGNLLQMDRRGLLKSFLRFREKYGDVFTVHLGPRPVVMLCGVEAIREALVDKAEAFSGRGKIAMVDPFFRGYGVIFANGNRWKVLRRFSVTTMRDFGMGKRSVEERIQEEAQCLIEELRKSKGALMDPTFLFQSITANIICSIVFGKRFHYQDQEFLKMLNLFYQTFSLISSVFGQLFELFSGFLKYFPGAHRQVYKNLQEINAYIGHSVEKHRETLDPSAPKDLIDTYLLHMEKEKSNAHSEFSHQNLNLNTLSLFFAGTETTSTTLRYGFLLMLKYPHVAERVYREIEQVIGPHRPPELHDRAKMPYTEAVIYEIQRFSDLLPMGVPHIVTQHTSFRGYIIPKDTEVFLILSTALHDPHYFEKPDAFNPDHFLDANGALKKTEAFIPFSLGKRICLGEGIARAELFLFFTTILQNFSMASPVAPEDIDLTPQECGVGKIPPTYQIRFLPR
Sequence of CYP2E1 (P05181 whole entry): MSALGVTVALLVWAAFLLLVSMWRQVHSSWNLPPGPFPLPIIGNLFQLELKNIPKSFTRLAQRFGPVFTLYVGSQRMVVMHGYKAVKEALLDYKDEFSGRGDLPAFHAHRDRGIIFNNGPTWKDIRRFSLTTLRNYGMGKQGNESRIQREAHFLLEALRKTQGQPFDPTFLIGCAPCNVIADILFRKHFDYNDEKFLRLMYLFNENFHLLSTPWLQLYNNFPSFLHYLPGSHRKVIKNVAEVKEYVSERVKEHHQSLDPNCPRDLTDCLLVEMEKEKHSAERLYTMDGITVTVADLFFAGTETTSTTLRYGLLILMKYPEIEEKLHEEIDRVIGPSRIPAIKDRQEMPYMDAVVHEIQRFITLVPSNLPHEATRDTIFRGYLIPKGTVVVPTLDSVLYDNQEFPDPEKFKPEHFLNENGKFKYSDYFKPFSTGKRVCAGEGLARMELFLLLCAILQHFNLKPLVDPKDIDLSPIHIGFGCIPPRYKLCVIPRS
Sequence of CYP2C19 (P33261 whole entry): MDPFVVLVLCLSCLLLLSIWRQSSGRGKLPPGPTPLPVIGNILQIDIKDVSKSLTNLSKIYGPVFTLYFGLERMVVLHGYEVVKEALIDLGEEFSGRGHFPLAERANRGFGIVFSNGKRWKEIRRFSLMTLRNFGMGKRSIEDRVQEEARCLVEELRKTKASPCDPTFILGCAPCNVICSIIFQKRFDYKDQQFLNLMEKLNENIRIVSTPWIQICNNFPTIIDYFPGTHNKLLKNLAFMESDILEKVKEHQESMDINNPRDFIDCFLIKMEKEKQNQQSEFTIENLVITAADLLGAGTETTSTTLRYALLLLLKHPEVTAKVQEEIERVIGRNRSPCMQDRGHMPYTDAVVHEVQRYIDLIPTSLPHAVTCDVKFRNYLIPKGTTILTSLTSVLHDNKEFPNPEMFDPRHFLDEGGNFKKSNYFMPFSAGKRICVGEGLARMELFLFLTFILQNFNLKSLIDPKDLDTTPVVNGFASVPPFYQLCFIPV
Sequence of CYP2D6 (P10635 whole entry): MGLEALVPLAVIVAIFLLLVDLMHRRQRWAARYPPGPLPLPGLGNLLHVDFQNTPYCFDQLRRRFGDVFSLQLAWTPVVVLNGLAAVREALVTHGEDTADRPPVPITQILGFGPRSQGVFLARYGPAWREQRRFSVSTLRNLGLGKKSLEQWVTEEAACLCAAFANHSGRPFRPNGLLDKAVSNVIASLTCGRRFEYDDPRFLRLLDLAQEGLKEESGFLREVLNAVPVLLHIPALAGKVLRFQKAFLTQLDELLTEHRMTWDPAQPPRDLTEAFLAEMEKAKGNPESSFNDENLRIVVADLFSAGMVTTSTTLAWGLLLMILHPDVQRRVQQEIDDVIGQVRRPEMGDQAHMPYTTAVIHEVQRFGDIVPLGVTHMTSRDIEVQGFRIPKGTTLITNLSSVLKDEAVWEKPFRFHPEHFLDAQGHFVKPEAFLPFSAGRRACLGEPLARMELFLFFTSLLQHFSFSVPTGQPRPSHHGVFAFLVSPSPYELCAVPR
Sequence of hERG (Q12809 whole entry): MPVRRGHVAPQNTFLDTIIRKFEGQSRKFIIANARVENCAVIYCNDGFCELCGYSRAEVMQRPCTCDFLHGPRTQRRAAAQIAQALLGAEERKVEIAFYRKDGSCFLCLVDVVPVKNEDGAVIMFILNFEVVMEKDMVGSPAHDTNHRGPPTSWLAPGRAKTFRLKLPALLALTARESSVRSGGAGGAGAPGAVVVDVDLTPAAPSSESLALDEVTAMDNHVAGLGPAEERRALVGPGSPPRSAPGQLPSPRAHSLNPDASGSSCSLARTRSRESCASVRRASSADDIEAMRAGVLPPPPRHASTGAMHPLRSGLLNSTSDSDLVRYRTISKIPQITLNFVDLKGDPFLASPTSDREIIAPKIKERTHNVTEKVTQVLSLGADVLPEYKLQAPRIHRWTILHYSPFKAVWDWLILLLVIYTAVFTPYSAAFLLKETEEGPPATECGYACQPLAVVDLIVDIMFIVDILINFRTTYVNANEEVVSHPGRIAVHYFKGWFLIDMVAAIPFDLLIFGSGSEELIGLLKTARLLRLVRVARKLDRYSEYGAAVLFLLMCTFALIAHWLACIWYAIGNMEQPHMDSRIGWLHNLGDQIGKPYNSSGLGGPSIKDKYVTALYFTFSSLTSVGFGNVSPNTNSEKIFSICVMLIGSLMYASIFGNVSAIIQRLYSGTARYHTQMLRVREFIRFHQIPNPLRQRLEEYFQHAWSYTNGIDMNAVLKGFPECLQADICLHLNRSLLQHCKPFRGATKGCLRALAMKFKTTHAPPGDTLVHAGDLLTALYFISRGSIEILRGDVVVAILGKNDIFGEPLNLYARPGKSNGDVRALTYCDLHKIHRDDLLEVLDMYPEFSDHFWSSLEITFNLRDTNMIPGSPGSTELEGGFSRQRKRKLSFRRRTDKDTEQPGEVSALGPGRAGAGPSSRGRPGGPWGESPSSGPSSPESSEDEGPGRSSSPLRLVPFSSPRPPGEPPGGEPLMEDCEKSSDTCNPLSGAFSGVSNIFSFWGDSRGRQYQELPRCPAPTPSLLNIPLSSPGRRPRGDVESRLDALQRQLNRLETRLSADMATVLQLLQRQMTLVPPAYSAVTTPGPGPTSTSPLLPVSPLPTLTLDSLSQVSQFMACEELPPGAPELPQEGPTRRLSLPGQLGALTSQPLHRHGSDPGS
Sequence of CYP2A6 (P11509 whole entry): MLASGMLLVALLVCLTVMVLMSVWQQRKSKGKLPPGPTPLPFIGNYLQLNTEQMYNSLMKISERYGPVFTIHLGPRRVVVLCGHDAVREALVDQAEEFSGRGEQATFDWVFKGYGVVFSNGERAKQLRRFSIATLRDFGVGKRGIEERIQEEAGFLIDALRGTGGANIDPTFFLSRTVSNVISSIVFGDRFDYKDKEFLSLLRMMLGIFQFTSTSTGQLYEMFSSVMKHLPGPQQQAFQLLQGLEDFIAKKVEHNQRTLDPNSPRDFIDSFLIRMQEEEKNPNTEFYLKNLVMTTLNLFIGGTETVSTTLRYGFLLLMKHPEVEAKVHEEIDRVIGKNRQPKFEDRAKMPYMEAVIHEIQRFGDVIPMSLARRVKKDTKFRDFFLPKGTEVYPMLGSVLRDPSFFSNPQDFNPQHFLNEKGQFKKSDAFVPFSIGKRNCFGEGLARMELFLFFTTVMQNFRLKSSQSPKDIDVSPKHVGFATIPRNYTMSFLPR
Sequence of CYP2C9 (P11712 whole entry): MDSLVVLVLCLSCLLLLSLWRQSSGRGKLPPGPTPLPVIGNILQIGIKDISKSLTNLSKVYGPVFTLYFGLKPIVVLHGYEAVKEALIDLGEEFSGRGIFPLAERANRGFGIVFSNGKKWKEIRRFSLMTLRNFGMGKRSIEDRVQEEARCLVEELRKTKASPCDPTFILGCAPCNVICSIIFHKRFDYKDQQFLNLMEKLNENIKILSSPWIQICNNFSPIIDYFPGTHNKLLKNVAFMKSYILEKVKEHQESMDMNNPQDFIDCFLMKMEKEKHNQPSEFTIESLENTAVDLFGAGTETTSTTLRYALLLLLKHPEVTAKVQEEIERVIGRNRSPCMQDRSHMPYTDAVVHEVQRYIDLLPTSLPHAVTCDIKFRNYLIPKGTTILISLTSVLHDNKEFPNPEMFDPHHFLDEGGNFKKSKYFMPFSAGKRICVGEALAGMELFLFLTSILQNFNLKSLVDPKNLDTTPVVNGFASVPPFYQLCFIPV
Sequence of CYP2C8 (P10632 whole entry): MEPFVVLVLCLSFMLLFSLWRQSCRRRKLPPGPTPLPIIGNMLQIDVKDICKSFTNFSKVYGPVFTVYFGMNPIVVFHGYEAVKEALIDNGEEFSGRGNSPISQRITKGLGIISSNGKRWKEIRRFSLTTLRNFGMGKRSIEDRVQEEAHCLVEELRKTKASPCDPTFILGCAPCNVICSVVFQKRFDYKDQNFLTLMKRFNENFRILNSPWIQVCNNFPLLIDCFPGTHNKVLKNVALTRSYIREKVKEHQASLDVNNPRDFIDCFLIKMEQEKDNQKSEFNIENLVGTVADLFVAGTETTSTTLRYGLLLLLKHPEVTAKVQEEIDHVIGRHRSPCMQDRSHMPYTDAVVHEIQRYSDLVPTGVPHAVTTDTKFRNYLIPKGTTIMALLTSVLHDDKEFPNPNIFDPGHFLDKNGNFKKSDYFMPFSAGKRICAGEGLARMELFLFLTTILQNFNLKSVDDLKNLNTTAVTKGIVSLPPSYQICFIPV

Question: Which results are given for `COCCNCc1ccc(-c2cc3nccc(Oc4ccc(NC(=O)C5(C(=O)Nc6ccc(F)cc6)CC5)cc4F)c3s2)nc1` [sitravatinib, N-(3-Fluoro-4-(2-(5-((2-methoxyethylamino)methyl)pyridin-2-yl)thieno[3,2-b]pyridin-7-yloxy)phenyl)-N-(4-fluorophenyl)cyclopropane-1,1-dicarboxamide]?
Answer: pIC50 (hERG): 6.22; anti-tumor activity in human xenograft tumor models [1]: anti tumor efficacy; anti-tumor activity in human xenograft tumor models ([1]; listed as Sitravatinib): tumor regression; pIC50 (CYP2D6): 5.72; direct inhibition of CYP2E1 (CYP2E1): little or no evidence; dose proportionality of Cmax and AUC ([2]; doses up to 200 mg): dose proportional; half-life ([2]; human, in vivo, oral administration, read-out: mean elimination half life): 42 to 58 h; permeability classification (Caco-2 cell lines): highly permeable; oncogenic functions associated with target RTKs (target RTKs [3]): inhibited oncogenic functions; phosphorylation and kinase dependent function (target RTKs [4]): inhibited phosphorylation and kinase dependent function; direct inhibition of CYP2A6 (CYP2A6): little or no evidence; pIC50 (CYP2C9): 4.96; expression of PD-L1 on tumor cells (PD-L1 on tumor cells): increase expression of PD-L1; inhibition of a closely related spectrum of tyrosine kinases [5]: potent inhibition; substrate of BCRP [6]: not a substrate; pIC50 (CYP2B6): < 4.70; inhibition at 20 µM (CYP2B6; human, highest concentration evaluated (20 μM)): ~50%; pIC50 (CYP2C8): 5.54; pIC50 (P-gp): 6.08; neurological functional observation battery and respiratory evaluations (tidal volume, respiration rate, minute volume) [7]: did not reveal any sitravatinib related effects; time- or metabolism-dependent inhibition of any of the CYP enzymes evaluated (CYP enzymes): little or no evidence; inhibition of kinase activity ([8]; biochemical assays): potent, concentration-dependent inhibition; potency against intended clinical targets ([8]; generally): less than 0.1 μM; pIC50 (CYP2C19): 5.00; direct inhibition of CYP1A2 (CYP1A2): little or no evidence; pIC50 (BCRP): 5.82; substrate of P-gp (P-glycoprotein (P-gp)): not a substrate; systemic MDSCs [9]: reduces the number; systemic/spleen CD4+ and CD8+ T lymphocytes [9]: increases the proliferation and fraction; CYP enzymes involved in metabolism (cytochrome P-450): multiple enzymes, including CYP 1A2, 2A6, 2B6, 2C8, 2C9, 2D6, 2E1, and 3A4 are involved; vascular pressures (in vivo): Minor increases; concentration at 6 hr (in vivo; 4 mg/kg): 72 ng/mL; bound to human plasma proteins (human plasma proteins): 98.6%

Reference: US20230321062A1, “COMBINATION THERAPIES” (Mirati Therapeutics, Inc., priority 2020, published 2023)
